This is an account of results in patent US20100144712A1 (priority 2007, published 2010).

What all share (assay type): cell-based
Assay [1] deals with Aspergillus fumigatus (ATCC 16424). Nature of the assay: In vitro antifungal activity (MIC80), Aspergillus fumigatus ATCC 16424. Particulars: Aspergillus fumigatus, ATCC16424, Table 2, ATCC 16424; read-out: Minimal inhibitory concentration (MIC80). As for the experimental part:
In vitro antifungal activities of the inventive antifungal compounds were evaluated using test strains including Candida albican (ATCC 90873, 204276, 62342, 64124, 64550, 96901, MYA-573, MYA-574, MYA-575, MYA-576, MYA-1003) and Aspergillus fumigatus (ATCC 16424). Test samples and positive control samples were prepared by dissolving the inventive compounds and comparative compounds, i.e., amphotericin B, fluconazole and itraconazole, in DMSO, respectively, and each successively diluted with medium to obtain test and positive control solutions having test compound concentrations of 0.125 μg/ml to a maximum concentration not generating turbidity. Minimal inhibitory concentration (MIC80) of each compound was determined as the lowest concentration of the test compounds required to reduce growth by 80% relative to a control strain not treated.
1) Test strain: Candida albican ATCC 90873, 204276, 62342, 64124, 64550, 96901, MYA-573, MYA-574, MYA-575, MYA-576, MYA-1003, and Aspergillus fumigatus ATCC 16424 were commercially obtained from The American Type Culture Collection (ATCC) and subcultured in CHEMON Co. Ltd. (amphotericin B was commercially purchased from Sigma, and fluconazole and itraconazole were prepared according to methods described in British Patent No. 2,099,818; and U.S. Pat. No. 4,267,179, respectively).
2) Medium and culture condition: Candida albican was cultured in Sabourad Dextrose Agar, YM Agar or Potato Dextrose Agar according to ATCC information at a temperature of 37° C., 35° C., 30° C. or 25° C. Aspergillus fumigatus was cultured in Malt Extract Agar or Potato Dextrose Agar at a temperature ranging from 24 to 27° C.
3) Preparation of test samples: the inventive compounds and comparative compounds were each diluted with DMSO to obtain 1 to 2 ml of a test sample in a concentration of 100-folds of the determining maximum concentration (256 μg/ml).
The test samples were each successively diluted with RPMI 1640 to obtain test solutions having concentrations of […] in a 12×75 mm sterilized disposable culture tube. The final concentration of DMSO was adjusted to […] (v/v).
5) Preparation of strain solution and inoculation
Candida albican strains were each subcultured in Sabourad Dextrose Agar, YM Agar or Potato Dextrose Agar medium at 35° C. for 2˜3 days. In the case of yeasts, a single colony was taken from prominent colonies and suspended in 0.85% sterile physiological saline solution and the turbidity of the suspension was adjusted to 80˜82% at 530 nm, and then diluted 50-fold with RPMI 1640 medium to 1.0×10^3˜5.0×10^3 CFU/ml. The turbidity of fungi was adjusted to 80˜82% and the suspension was diluted 50-fold to […]. Aspergillus fumigatus strains were subcultured in Malt Extract Agar for 7˜10 days, and a single colony was taken from prominent colonies and suspended in 0.85% sterile physiological saline solution and the suspension was adjusted to 0.108 at 530 nm, and then diluted 1000-fold with RPMI 1640 medium to 0.4×10^2˜5×10^4 CFU/ml. The turbidity of fungi was adjusted to 80˜82% and the suspension was diluted 50-fold to 0.4102˜0.5104 CFU/ml.
The strain solutions thus obtained were each seeded into a sterilized 96-well microplate, 0.1 ml of each test solution were added thereto, and […] of alamarblue was treated to each well (Biosource, #DAL1100). This procedure was repeated 2 times.
Minimal inhibitory concentration (MIC80) of each compound was determined as the lowest concentration of the test compounds required to reduce growth by 80% relative to a control strain not treated.
MIC80 of each of the compounds of which antifungal activities can be confirmed by Table 2 was determined using other test strains, i.e., Aspergillus fumigatus ATCC 16424 and MYA-1163, Aspergillus terreus ATCC 28301, Aspergillus flavus ATCC MYA-1004, and Aspergillus niger ATCC 9142.

Assay [2] relates to Candida albican ATCC 90873. Nature of the assay: In vitro antifungal activity (MIC80), Candida albican ATCC 90873. Particulars: Candida, ATCC90873; Table 2, ATCC 90873; read-out: Minimal inhibitory concentration (MIC80). In a few lines:
(§1)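 Broth dilution in RPMI 1640 with 2% (v/v) final DMSO, test range 0.25 to 256 […]. Yeast inoculum 1.0×10^3–5.0×10^3 CFU/ml, growth read with alamarBlue, run twice. MIC80 is the lowest concentration giving 80% growth reduction against untreated control.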

The test system of assay [3] is Candida albican ATCC MYA-1003. In words: In vitro antifungal activity (MIC80), Candida albican ATCC MYA-1003. The settings on record: Candida; Table 2, MYA 1003; read-out: Minimal inhibitory concentration (MIC80). In a few lines:
as §1

Assay [4] relates to Candida albican ATCC MYA-573. Nature of the assay: In vitro antifungal activity (MIC80), Candida albican ATCC MYA-573. Particulars: Candida; Table 2, MYA 573; read-out: Minimal inhibitory concentration (MIC80). In a few lines:
as §1

The test system of assay [5] is Candida albican ATCC 96901. Nature of the assay: In vitro antifungal activity (MIC80), Candida albican ATCC 96901. Particulars: Candida, ATCC96901; Table 2, ATCC 96901; read-out: Minimal inhibitory concentration (MIC80). Summed up:
as §1

The test system of assay [6] is Candida albican ATCC 64124. In words: In vitro antifungal activity (MIC80), Candida albican ATCC 64124. The settings on record: Candida, ATCC64124; Table 2, 64124; read-out: Minimal inhibitory concentration (MIC80). In a few lines: as §1
The subject of assay [7] is Candida albican ATCC MYA-576. In words: In vitro antifungal activity (MIC80), Candida albican ATCC MYA-576. Particulars: Candida; Table 2, MYA 576; read-out: Minimal inhibitory concentration (MIC80). In a few lines: as §1
Assay [8] has as its system Candida albican ATCC MYA-575. Nature of the assay: In vitro antifungal activity (MIC80), Candida albican ATCC MYA-575. Particulars: Candida; Table 2, MYA 575; read-out: Minimal inhibitory concentration (MIC80). In a few lines: as §1
The test system of assay [9] is Candida albican ATCC MYA-574. In words: In vitro antifungal activity (MIC80), Candida albican ATCC MYA-574. Particulars: Candida; Table 2, MYA 574; read-out: Minimal inhibitory concentration (MIC80). In a few lines: as §1
The subject of assay [10] is Candida albican ATCC 64550. Nature of the assay: In vitro antifungal activity (MIC80), Candida albican ATCC 64550. Particulars: Candida, ATCC64550; Table 2, 64550; read-out: Minimal inhibitory concentration (MIC80). Summed up:
as §1

Assay [11] concerns Candida albican ATCC 62342. In words: In vitro antifungal activity (MIC80), Candida albican ATCC 62342. The settings on record: Candida, ATCC62342; Table 2, 62342; read-out: Minimal inhibitory concentration (MIC80). Summed up:
as §1

Values after ≈ are worked out from the molar mass of the structure shown. A value given as a limit tells only on which side of the number the result lay.

As to `COc1ccc(-c2noc(C(=O)N3CCN([C@H](C)[C@](O)(Cn4cncn4)c4ccc(F)cc4F)CC3)n2)cc1` [Example 49, (4-((2R,3R)-3-(2,4-difluorophenyl)-3-hydroxy-4-(1H-1,2,4-triazol-1-yl)butan-2-yl)piperazin-1-yl)(3-(4-methoxyphenyl)-1,2,4-oxadiazol-5-yl)methanone], the MIC80 in assay [1] was 0.5 µg/mL (≈ 0.927 µM); in assay [2] it was 0.125 µg/mL (≈ 0.232 µM); in assay [3], > 128 µg/mL; in assay [4] it was 1 µg/mL (≈ 1.85 µM); in assay [5] it was > 128 µg/mL.
Consider `Cc1ccc(-c2nsc(C(=O)N3CCN([C@H](C)[C@](O)(Cn4cncn4)c4ccc(F)cc4F)CC3)n2)cc1` [Example 53, (4-((2R,3R)-3-(2,4-difluorophenyl)-3-hydroxy-4-(1H-1,2,4-triazol-1-yl)butan-2-yl)piperazin-1-yl)(3-p-tolyl-1,2,4-thiadiazol-5-yl)methanone], for which the MIC80 was 1 µg/mL (≈ 1.85 µM) in assay [1]; 0.25 µg/mL (≈ 0.463 µM) in assay [2]; > 128 µg/mL in [3]; > 128 µg/mL in assay [4]; > 128 µg/mL in [5].
In the case of `C[C@@H](N1CCN(C(=O)c2nc(-c3ccccc3)ns2)CC1)[C@](O)(Cn1cncn1)c1ccc(F)cc1F` [Example 50, (4-((2R,3R)-3-(2,4-difluorophenyl)-3-hydroxy-4-(1H-1,2,4-triazol-1-yl)butan-2-yl)piperazin-1-yl)(3-phenyl-1,2,4-thiadiazol-5-yl)methanone], the MIC80 in [1] is 0.5 µg/mL (≈ 0.951 µM); in [2], 0.125 µg/mL (≈ 0.238 µM); in assay [3], > 128 µg/mL; in assay [4] it was > 128 µg/mL; in [5], > 128 µg/mL.
As for `C[C@@H](N1CCN(C(=O)c2nc(-c3ccc(Br)cc3)no2)CC1)[C@](O)(Cn1cncn1)c1ccc(F)cc1F` [Example 46, (3-(4-bromophenyl)-1,2,4-oxadiazol-5-yl)(4-((2R,3R)-3-(2,4-difluorophenyl)-3-hydroxy-4-(1H-1,2,4-triazol-1-yl)butan-2-yl)piperazin-1-yl)methanone], the MIC80 in [1] was 0.126 µg/mL (≈ 0.214 µM); in assay [2] it was 0.125 µg/mL (≈ 0.212 µM); in assay [3], > 128 µg/mL; in assay [4] it was > 128 µg/mL; in assay [5] it was > 128 µg/mL.
Consider `CC(N1CCN(C(=O)c2nc(-c3ccc(Cl)cc3)no2)CC1)C(O)(Cn1cncn1)c1ccc(F)cc1F` [Example 48, (3-(4-chlorophenyl-1,2,4-oxadiazol-5-yl)(4-((2R,3R)-3-(2,4-difluorophenyl)-3-hydroxy-4-(1H-1,2,4-triazol-1-yl)butan-2-yl)piperazin-1-yl)methanone], for which the MIC80 is 0.126 µg/mL (≈ 0.232 µM) in assay [1]; 0.126 µg/mL (≈ 0.232 µM) in [2]; > 128 µg/mL in assay [3]; 0.25 µg/mL (≈ 0.46 µM) in assay [4]; > 128 µg/mL in assay [5].
In the case of `Cc1ccc(-c2noc(C(=O)N3CCN([C@H](C)[C@](O)(Cn4cncn4)c4ccc(F)cc4F)CC3)n2)cc1` [Example 47, (4-((2R,3R)-3-(2,4-difluorophenyl)-3-hydroxy-4-(1H-1,2,4-triazol-1-yl)butan-2-yl)piperazin-1-yl)(3-p-tolyl-1,2,4-oxadiazol-5-yl)methanone], the MIC80 in assay [1] is 0.25 µg/mL (≈ 0.478 µM); in [2], 0.125 µg/mL (≈ 0.239 µM); in [3], > 128 µg/mL; in assay [4], 0.25 µg/mL (≈ 0.478 µM); in assay [5], > 128 µg/mL.
For the compound `C[C@@H](N1CCN(C(=O)c2nc(-c3ccccc3)no2)CC1)[C@](O)(Cn1cncn1)c1ccc(F)cc1F` [Example 45, (4-((2R,3R)-3-(2,4-difluorophenyl)-3-hydroxy-4-(1H-1,2,4-triazol-1-yl)butan-2-yl)piperazin-1-yl)(3-phenyl-1,2,4-oxadiazol-5-yl)methanone], the MIC80 is 0.125 µg/mL (≈ 0.245 µM) in assay [1]; 0.125 µg/mL (≈ 0.245 µM) in [2]; > 128 µg/mL in assay [3]; 1 µg/mL (≈ 1.96 µM) in assay [4]; > 128 µg/mL in assay [5].
`COc1ccc(-c2nsc(C(=O)N3CCN([C@H](C)[C@](O)(Cn4cncn4)c4ccc(F)cc4F)CC3)n2)cc1` [Example 54, (4-((2R,3R)-3-(2,4-difluorophenyl)-3-hydroxy-4-(1H-1,2,4-triazol-1-yl)butan-2-yl)piperazin-1-yl)(3-(4-methoxyphenyl)-1,2,4-thiadiazol-5-yl)methanone]: the MIC80 in assay [1] was 0.5 µg/mL (≈ 0.9 µM); in assay [2], 0.125 µg/mL (≈ 0.225 µM); in [3], > 128 µg/mL; in [4], 4 µg/mL (≈ 7.2 µM); in assay [5], > 128 µg/mL.
With `C[C@@H](N1CCN(C(=O)c2nc(-c3ccc(Cl)cc3)ns2)CC1)[C@](O)(Cn1cncn1)c1ccc(F)cc1F` [Example 51, (3-(4-chlorophenyl)-1,2,4-thiadiazol-5-yl)(4-((2R,3R)-3-(2,4-difluorophenyl)-3-hydroxy-4-(1H-1,2,4-triazol-1-yl)butan-2-yl)piperazin-1-yl)methanone], the MIC80 in [1] was 1 µg/mL (≈ 1.79 µM); in assay [2], 0.25 µg/mL (≈ 0.446 µM); in assay [3], > 128 µg/mL; in assay [4], 4 µg/mL (≈ 7.14 µM); in [5], > 128 µg/mL.
`C[C@@H](N1CCCN(c2ccc3ccccc3n2)CC1)[C@](O)(Cn1cncn1)c1ccc(F)cc1F` [Example 40, (2R,3R)-2-(2,4-difluorophenyl)-3-(4-(quinolin-2-yl)-1,4-diazepan-1-yl)-1-(1H-1,2,4-triazol-1-yl)butan-2-ol]: the MIC80 in assay [6] is 8 µg/mL (≈ 16.7 µM); in assay [7] it was 0.125 µg/mL (≈ 0.261 µM); in assay [8], 0.125 µg/mL (≈ 0.261 µM); in assay [2] it was 0.125 µg/mL (≈ 0.261 µM); in assay [3] it was > 128 µg/mL; in assay [9], 2 µg/mL (≈ 4.18 µM). In addition, the MIC80 in assay [4] came out at 0.5 µg/mL (≈ 1.04 µM); in [10] it was 2 µg/mL (≈ 4.18 µM); in [11], 0.25 µg/mL (≈ 0.522 µM); in [5], 16 µg/mL (≈ 33.4 µM).
